PubChem BioAssay (NCI)
Values joined by “and” are separate entries in the source; they are usually repeats but may differ in a detail not shown here. Equal values may be shown once.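 96-well plates; 48 h exposure; 5 concentrations. Endpoints by linear interpolation between flanking doses. Not reached: highest tested concentration assigned. At the GI50, growth is halved. TGI is the concentration that stops growth completely.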

Key:
Experiment in all cases: NCI tumour cell line growth inhibition, 48 h
[1] = system: 786-0 renal
[2] = system: HT29 colon
[3] = system: MCF7 breast
[4] = system: MDA-MB-231 breast
[5] = system: NCI-H226 lung
[6] = system: NCI-H522 lung
[7] = system: NCI/ADR-RES ovarian
[8] = system: OVCAR-4 ovarian
[9] = system: OVCAR-5 ovarian
[10] = system: RPMI-8226 leukemia
[11] = system: TK-10 renal
[12] = system: SW-620 colon

| Structure (SMILES) | TGI [1] | TGI [2] | TGI [3] | TGI [4] | TGI [5] [µM] | TGI [6] | TGI [7] | TGI [8] | TGI [9] | TGI [10] [µM] | TGI [11] [µM] | TGI [12] [µM] | GI50 [7] [µM] | GI50 [9] [µM] |
| --- | --- | --- | --- | --- | --- | --- | --- | --- | --- | --- | --- | --- | --- | --- |
| Nc1cc(CO)cc(Nc2c3ccccc3nc3occc23)c1 | 77.4 µM | 30.5 µM | 66 µM | > 100 µM | > 100 | 39.9 µM | 62.6 µM | 54.5 µM | > 100 µM | > 100 | > 100 |  |  |  |
| Cc1ccc2c3c1O[C@H]1c4nc5ccccc5cc4C[C@@]4(O)[C@@H](C2)N(CC2CC2)CC[C@]314 | 22.7 µM | 16.7 µM | 22.3 µM | 23.5 µM | 29.5 | 27.5 µM | 23.5 µM | 46 µM | 25.8 µM | 25.4 | 54.6 | 18.3 |  |  |
| Clc1ccc(OCc2nnc(CCCCCCCCc3nnc(COc4ccc(Cl)cc4Cl)o3)o2)c(Cl)c1 | > 100 µM | > 100 µM | > 100 µM | > 100 µM | > 100 | > 100 µM | > 100 µM | > 100 µM | > 100 µM | > 100 | > 100 | > 100 |  |  |
| CCOC(=O)/C=C(/C(=O)OCC)n1cc(C)c(=O)n(Cc2cnnn2CCCCOC(C)=O)c1=O | 78.4 µM | 34.3 µM | 32.5 µM | > 100 µM | > 100 | 14.2 µM | 69.3 µM | > 100 µM | 39.8 µM | 46.2 | 26.7 | > 100 |  |  |
| COC(=O)/C=C1/OC(c2ccccc2)=C(Cl)C1=O | 33.7 µM | 48.4 µM | 37.5 µM | 36 µM | > 84.6 | 33 µM | 61.9 µM | 39 µM | 35.6 µM | 22.5 | 51.6 | 41.6 |  |  |
| CC(=O)C(=C(I)I)c1ccccc1 | 40.3 µM | 35.2 µM | 46.8 µM | 51.4 µM | 27.3 | 31 µM | 49 µM | 31.3 µM | 45.7 µM |  |  | 38.7 |  |  |
| O=C1CSC2(CCN(CCCN3c4ccccc4Sc4ccc(Cl)cc43)CC2)N1 | 23.2 µM | 11.9 µM | 18.5 µM | 18.8 µM | 40.7 | 23.6 µM | 20.2 µM | 23.1 µM | 24.3 µM | 18.3 | 21.2 | 23.6 |  |  |
| C=C(Br)CN(C#N)CC(=C)Br | > 100 µM | > 100 µM | > 100 µM | > 100 µM | > 100 | > 100 µM | > 100 µM | > 100 µM | > 100 µM | > 100 | > 100 | > 100 |  |  |
| COc1cccc(/C=C/C2=NN(c3cccc(S(=O)(=O)O)c3)C3(C2)SCC(=O)N3c2nc3ccccc3s2)c1 (configuration not stated) | 43.1 µM | > 100 µM | > 100 µM | > 100 µM | > 100 | 28.4 µM | > 100 µM | > 100 µM | > 100 µM | 52.4 | 81.1 | > 100 |  |  |
| CC(=O)O[C@H]1/C(=C/c2ccc(N(C)C)cc2)C[C@H]2[C@@H]3CC=C4C[C@@H](N5CCCC5)CC[C@]4(C)[C@H]3CC[C@]12C | > 100 µM | > 100 µM | > 100 µM | > 100 µM | > 100 |  | > 100 µM |  | > 100 µM | > 100 | > 100 | > 100 |  |  |
| O=S1(=O)c2ccccc2N2CCCc3cc(Cl)cc1c32 | > 100 µM | > 100 µM | > 100 µM | > 100 µM | > 100 |  | > 100 µM | > 100 µM | > 100 µM |  |  | > 100 |  |  |
| O=C1CC(O)c2c(Cl)sc(Cl)c21 (configuration not stated) | 11.2 µM | 10 µM | 30.5 µM | > 61.3 µM | 36.6 |  | 59.2 µM | 54.3 µM | 33 µM | 59.7 | 30.1 | 6.5 |  |  |
| Cc1nn(-c2ccccc2)c(C)c1/C=N/NC(=O)c1sc(=S)n(-c2ccccc2)c1N | > 100 µM | 19.7 µM | > 100 µM | 7.78 µM | 79.1 |  | > 100 µM | 8.74 µM | > 100 µM | 31.2 | 7.19 | > 100 |  |  |
| CC1(C)C2CCC1C(=O)C(C=O)C2 (configuration not stated) | > 100 µM | > 100 µM | > 100 µM | > 100 µM | > 100 | > 100 µM | > 100 µM |  | > 100 µM | > 100 | > 100 | > 100 |  |  |
| CCCCCC(C)C[C@H]1CO[C@H](c2ccc[nH]2)N[C@H]1C(=O)OC (some centres not stated) | > 100 µM | > 100 µM | > 100 µM | > 100 µM |  | > 100 µM | > 100 µM | > 100 µM | > 100 µM | > 100 | > 100 | > 100 |  |  |
| O=[N+]([O-])C(=C(NCc1ccccc1)NCc1ccccc1)C(Cl)=C(Cl)Cl | > 100 µM | > 100 µM | > 100 µM | 81.2 µM | 90.7 | 79.1 µM | > 100 µM | > 100 µM |  | 68.4 | > 100 | > 100 |  |  |
| O=C1CC(c2cccc(Cl)c2)n2cccc21 (configuration not stated) | > 100 µM | > 100 µM | > 100 µM | > 100 µM | > 100 |  | > 100 µM | > 100 µM | > 100 µM | > 100 | > 100 | > 100 |  |  |
| O=C(CSc1nc2ccc(I)cc2c(=O)n1Cc1ccccc1)Nc1ccc(Br)cc1 | > 100 µM | > 100 µM | > 100 µM | 89.7 µM | > 100 | > 100 µM | > 100 µM | > 100 µM | > 100 µM | > 100 |  | > 100 |  |  |
| COC1C(O)=C2C(=O)OC(C)(O)/C=C/C=C\C=C/C=C/C(c3ccccc3)NC(=O)/C=C/C=C/C=C/C=C/C2(C)C1O (configuration not stated) | 0.0234 µM and 0.0419 µM | 0.0161 µM and 0.0687 µM | 0.0273 µM and 0.169 µM | 0.105 µM and 0.0133 µM | 0.156 | 0.038 µM and 0.11 µM | 0.0535 µM and 0.206 µM | 0.248 µM and 0.0594 µM | 0.566 µM and 0.224 µM |  | 0.0668 | 0.0498 | 0.0142 | 0.0649 |
| CN(C)Cc1cc(N=Nc2ccc(Cl)c(Cl)c2)ccc1O | 24.2 µM | 20.4 µM | 18.1 µM | 18.2 µM | 40.7 | 16.2 µM | 23.5 µM | 20.8 µM |  | 38.8 | 22.9 | 23.1 |  |  |
| Clc1ccc(-c2nc(-c3ccc(Cl)cc3)[s+]s2)cc1 | > 100 µM | > 100 µM | > 100 µM | > 100 µM |  | > 100 µM | > 100 µM | 98.9 µM | > 100 µM | 90.6 | 86.5 | > 100 |  |  |
| CC1(C)CCOC(=O)C(Cl)CC1Cl (configuration not stated) | > 100 µM | > 100 µM | > 100 µM | > 100 µM | > 100 | > 100 µM | > 100 µM | > 100 µM | > 100 µM |  | > 100 | > 100 |  |  |
| CC(NC(=O)c1ccc(OP(=O)(OCC2=CC(=O)c3ccccc3C2=O)N(C)CCCCCl)cc1)c1ccc(OCC2CCCCC2)c(C(N)=O)c1 (configuration not stated) | 28.6 µM | 31.2 µM | 24.9 µM | 21.3 µM | 24.2 | 29 µM | 32.5 µM |  | 70.6 µM | 30.6 | 61.7 | 38.3 |  |  |
| COc1cccc(-c2cc(=O)c3cc(C)cnc3[nH]2)c1 | > 25.3 µM | 0.191 µM | > 100 µM | > 100 µM | 0.339 |  | > 100 µM | > 100 µM | > 100 µM | 29.6 | > 100 | > 100 |  |  |
| C/C(=N/O)c1cccc(Nc2nc3ccccc3c3[nH]c4ccccc4c23)c1 | 6.96 µM | 6.51 µM | 5.63 µM | 11.5 µM | 21 | 4.4 µM | 20 µM | 6.96 µM | 9.27 µM |  | 15.6 | 19.4 |  |  |
| O=C(c1cccs1)N(C(=O)N1CCC(c2ccccc2)CC1)c1ccccc1 | > 100 µM | > 100 µM | > 100 µM | > 100 µM | > 100 |  | > 100 µM |  | > 100 µM | 70.3 | > 100 | > 100 |  |  |
| COc1ccc2nc3c([N+](=O)[O-])ccc4c3c(c2c1)NCCN4C | 3.37 µM | 12.4 µM | 8.75 µM | 3.01 µM | 3.59 | 3.31 µM | 7.73 µM | 3.57 µM | 23 µM |  | 51.9 | 4.76 |  |  |
| CC(C)n1c(=O)c2nn3c(=O)n(C(C)C)c(=O)c3nn2c1=O | > 100 µM | > 100 µM | > 100 µM | > 100 µM | > 100 |  | > 100 µM | > 100 µM | > 100 µM |  | > 100 | > 100 |  |  |
| COC(=O)CC1C2CC3C(C2=O)C13 (configuration not stated) | > 100 µM | > 100 µM | > 100 µM | > 100 µM | > 100 | > 100 µM | > 100 µM | > 100 µM | > 100 µM |  | > 100 | > 100 |  |  |
